Reference: PubChem BioAssay AID1259407 (Chemical Carcinogenesis Research Information System (CCRIS), 2018)
Calls of active or inactive are those of the source. The rule behind the calls is not given here.

Test system: CCRIS mutagenicity, Ames/micronucleus/aberration tests
Experiment: CCRIS mutagenicity studies
[1] = Test System: AMES SALMONELLA TYPHIMURIUM, Strain/Indicator: TA98, Metabolic Activation: NONE, Method: PREINCUBATION
[2] = Test System: AMES SALMONELLA TYPHIMURIUM, Strain/Indicator: TA100, Metabolic Activation: NONE, Method: PREINCUBATION
[3] = Test System: AMES SALMONELLA TYPHIMURIUM, Strain/Indicator: TA1535, Metabolic Activation: NONE, Method: PREINCUBATION
[4] = Test System: AMES SALMONELLA TYPHIMURIUM, Strain/Indicator: TA1537, Metabolic Activation: NONE, Method: PREINCUBATION

## CC1=CC(=C(c2ccc(N)cc2)c2ccc(N)cc2)C=CC1=N
[1]
  mutagenic call: inactive; negative
Test System: AMES SALMONELLA TYPHIMURIUM, Strain/Indicator: TA98, Metabolic Activation: RAT LIVER S-9, PHENOBARBITAL AND BETA-NAPHTHOFLAVONE, Method: PREINCUBATION
  mutagenic call: inactive; negative
[2]
  mutagenic call: inactive; negative
Test System: AMES SALMONELLA TYPHIMURIUM, Strain/Indicator: TA100, Metabolic Activation: RAT LIVER S-9, PHENOBARBITAL AND BETA-NAPHTHOFLAVONE, Method: PREINCUBATION
  mutagenic call: inactive; negative
Test System: AMES SALMONELLA TYPHIMURIUM, Strain/Indicator: TA100, Method: PREINCUBATION
  mutagenic call: active; positive
[3]
  mutagenic call: inactive; negative
Test System: AMES SALMONELLA TYPHIMURIUM, Strain/Indicator: TA1535, Metabolic Activation: RAT LIVER S-9, PHENOBARBITAL AND BETA-NAPHTHOFLAVONE, Method: PREINCUBATION
  mutagenic call: inactive; negative
[4]
  mutagenic call: inactive; negative
Test System: AMES SALMONELLA TYPHIMURIUM, Strain/Indicator: TA1537, Metabolic Activation: RAT LIVER S-9, PHENOBARBITAL AND BETA-NAPHTHOFLAVONE, Method: PREINCUBATION
  mutagenic call: inactive; negative
Test System: AMES SALMONELLA TYPHIMURIUM, Strain/Indicator: TA1538, Metabolic Activation: NONE, Method: PREINCUBATION
  mutagenic call: inactive; negative
Test System: AMES SALMONELLA TYPHIMURIUM, Strain/Indicator: TA1538, Metabolic Activation: RAT LIVER S-9, PHENOBARBITAL AND BETA-NAPHTHOFLAVONE, Method: PREINCUBATION
  mutagenic call: inactive; negative
Test System: E.COLI, Strain/Indicator: WP2UVRA, Metabolic Activation: NONE, Method: PREINCUBATION
  mutagenic call: inactive; negative
Test System: E.COLI, Strain/Indicator: WP2UVRA, Metabolic Activation: RAT LIVER S-9, PHENOBARBITAL AND BETA-NAPHTHOFLAVONE, Method: PREINCUBATION
  mutagenic call: inactive; negative

## N#C[S-].N#C[S-].N#C[S-].N#C[S-].N#C[S-].N#C[S-].[K+].[K+].[Pt+4]
[1]
  mutagenic call: inactive; negative
Test System: AMES SALMONELLA TYPHIMURIUM, Strain/Indicator: TA98, Metabolic Activation: RAT, LIVER, S-9, AROCLOR 1254, Method: PREINCUBATION
  mutagenic call: inactive; negative
[2]
  mutagenic call: inactive; negative
Test System: AMES SALMONELLA TYPHIMURIUM, Strain/Indicator: TA100, Metabolic Activation: RAT, LIVER, S-9, AROCLOR 1254, Method: PREINCUBATION
  mutagenic call: inactive; negative

## CC(C)S(=O)(=O)Cl
[1]
  mutagenic call: inactive; negative
Test System: AMES SALMONELLA TYPHIMURIUM, Strain/Indicator: TA98, Metabolic Activation: RAT, LIVER, S-9, PHENOBARBITAL, Method: PREINCUBATION
  mutagenic call: active; positive
[2]
  mutagenic call: active; positive
Test System: AMES SALMONELLA TYPHIMURIUM, Strain/Indicator: TA100, Metabolic Activation: RAT, LIVER, S-9, PHENOBARBITAL, Method: PREINCUBATION
  mutagenic call: active; positive

## [Cl][Hg].[Cl][Hg]
End Point: IN VIVO MICRONUCLEUS, Test System: BONE MARROW, Species: HAMSTER, Strain/Sex: SYRIAN/MALE, Route: INTRAPERITONEAL
  mutagenic call: inactive; negative

## CCOC(=O)[C@H](CCc1ccccc1)N[C@@H](C)C(=O)N1[C@H](C(=O)O)C[C@H]2CCCC[C@@H]21
[1]
  mutagenic call: inactive; negative
Test System: AMES SALMONELLA TYPHIMURIUM, Strain/Indicator: TA98, Metabolic Activation: RAT, LIVER, S-9, PHENOBARBITAL AND 5,6-BENZOFLAVONE, Method: PREINCUBATION
  mutagenic call: inactive; negative
[2]
  mutagenic call: inactive; negative
Test System: AMES SALMONELLA TYPHIMURIUM, Strain/Indicator: TA100, Metabolic Activation: RAT, LIVER, S-9, PHENOBARBITAL AND 5,6-BENZOFLAVONE, Method: PREINCUBATION
  mutagenic call: inactive; negative
[3]
  mutagenic call: inactive; negative
Test System: AMES SALMONELLA TYPHIMURIUM, Strain/Indicator: TA1535, Metabolic Activation: RAT, LIVER, S-9, PHENOBARBITAL AND 5,6-BENZOFLAVONE, Method: PREINCUBATION
  mutagenic call: inactive; negative
[4]
  mutagenic call: inactive; negative
Test System: AMES SALMONELLA TYPHIMURIUM, Strain/Indicator: TA1537, Metabolic Activation: RAT, LIVER, S-9, PHENOBARBITAL AND 5,6-BENZOFLAVONE, Method: PREINCUBATION
  mutagenic call: inactive; negative
Test System: E. COLI, Strain/Indicator: WP2 UVRA, Metabolic Activation: NONE, Method: PREINCUBATION
  mutagenic call: inactive; negative
Test System: E. COLI, Strain/Indicator: WP2 UVRA, Metabolic Activation: RAT, LIVER, S-9, PHENOBARBITAL AND 5,6-BENZOFLAVONE, Method: PREINCUBATION
  mutagenic call: inactive; negative
